Active and inactive are the calls of the source. No rule for the calls is given here.
Tested on: CCRIS mutagenicity, Ames/micronucleus/aberration tests
Assay: CCRIS mutagenicity studies
[1] = Test System: AMES SALMONELLA TYPHIMURIUM, Strain/Indicator: TA98, Metabolic Activation: NONE, Method: STANDARD PLATE
[2] = Test System: AMES SALMONELLA TYPHIMURIUM, Strain/Indicator: TA100, Metabolic Activation: NONE, Method: STANDARD PLATE
[3] = Test System: AMES SALMONELLA TYPHIMURIUM, Strain/Indicator: TA100, Metabolic Activation: RAT, LIVER, S-9, AROCLOR 1254, Method: STANDARD PLATE
[4] = Test System: AMES SALMONELLA TYPHIMURIUM, Strain/Indicator: TA98, Metabolic Activation: NONE, Method: PREINCUBATION
[5] = Test System: AMES SALMONELLA TYPHIMURIUM, Strain/Indicator: TA100, Metabolic Activation: NONE, Method: PREINCUBATION

CN(C)N=Nc1ccc(Br)cc1
mutagenic call (Test System: AMES SALMONELLA TYPHIMURIUM, Strain/Indicator: TA92, Metabolic Activation: MOUSE, LIVER, S-9, POLYCHLORINATED BIPHENYLS, Method: PREINCUBATION): inactive; negative | mutagenic call (Test System: AMES SALMONELLA TYPHIMURIUM, Strain/Indicator: TA92, Metabolic Activation: MOUSE, LIVER, S-9, POLYCHLORINATED BIPHENYLS, Method: STANDARD PLATE): inactive; negative | mutagenic call (Test System: AMES SALMONELLA TYPHIMURIUM, Strain/Indicator: TA92, Metabolic Activation: NONE, Method: STANDARD PLATE): inactive; negative | mutagenic call (Test System: AMES SALMONELLA TYPHIMURIUM, Strain/Indicator: TA97, Metabolic Activation: MOUSE, LIVER, S-9, POLYCHLORINATED BIPHENYLS, Method: PREINCUBATION): inactive; negative | mutagenic call (Test System: AMES SALMONELLA TYPHIMURIUM, Strain/Indicator: TA97, Metabolic Activation: MOUSE, LIVER, S-9, POLYCHLORINATED BIPHENYLS, Method: STANDARD PLATE): inactive; negative | mutagenic call (Test System: AMES SALMONELLA TYPHIMURIUM, Strain/Indicator: TA97, Metabolic Activation: NONE, Method: STANDARD PLATE): inactive; negative | mutagenic call (Test System: AMES SALMONELLA TYPHIMURIUM, Strain/Indicator: TA98, Metabolic Activation: MOUSE, LIVER, S-9, POLYCHLORINATED BIPHENYLS, Method: PREINCUBATION): active; positive | mutagenic call (Test System: AMES SALMONELLA TYPHIMURIUM, Strain/Indicator: TA98, Metabolic Activation: MOUSE, LIVER, S-9, POLYCHLORINATED BIPHENYLS, Method: STANDARD PLATE): inactive; negative | mutagenic call [1]: inactive; negative | mutagenic call (Test System: AMES SALMONELLA TYPHIMURIUM, Strain/Indicator: TA100, Metabolic Activation: MOUSE, LIVER, S-9, POLYCHLORINATED BIPHENYLS, Method: PREINCUBATION): inactive; negative | mutagenic call (Test System: AMES SALMONELLA TYPHIMURIUM, Strain/Indicator: TA100, Metabolic Activation: MOUSE, LIVER, S-9, POLYCHLORINATED BIPHENYLS, Method: STANDARD PLATE): inactive; negative | mutagenic call [2]: inactive; negative | mutagenic call (Test System: AMES SALMONELLA TYPHIMURIUM, Strain/Indicator: TA1535, Metabolic Activation: MOUSE, LIVER, S-9, POLYCHLORINATED BIPHENYLS, Method: PREINCUBATION): active; positive | mutagenic call (Test System: AMES SALMONELLA TYPHIMURIUM, Strain/Indicator: TA1535, Metabolic Activation: MOUSE, LIVER, S-9, POLYCHLORINATED BIPHENYLS, Method: STANDARD PLATE): inactive; negative | mutagenic call (Test System: AMES SALMONELLA TYPHIMURIUM, Strain/Indicator: TA1535, Metabolic Activation: NONE, Method: STANDARD PLATE): inactive; negative | mutagenic call (Test System: AMES SALMONELLA TYPHIMURIUM, Strain/Indicator: TA1537, Metabolic Activation: MOUSE, LIVER, S-9, POLYCHLORINATED BIPHENYLS, Method: PREINCUBATION): active; positive | mutagenic call (Test System: AMES SALMONELLA TYPHIMURIUM, Strain/Indicator: TA1537, Metabolic Activation: MOUSE, LIVER, S-9, POLYCHLORINATED BIPHENYLS, Method: STANDARD PLATE): active; positive | mutagenic call (Test System: AMES SALMONELLA TYPHIMURIUM, Strain/Indicator: TA1537, Metabolic Activation: NONE, Method: STANDARD PLATE): active; positive | mutagenic call (Test System: AMES SALMONELLA TYPHIMURIUM, Strain/Indicator: TA1538, Metabolic Activation: MOUSE, LIVER, S-9, POLYCHLORINATED BIPHENYLS, Method: PREINCUBATION): inactive; negative | mutagenic call (Test System: AMES SALMONELLA TYPHIMURIUM, Strain/Indicator: TA1538, Metabolic Activation: MOUSE, LIVER, S-9, POLYCHLORINATED BIPHENYLS, Method: STANDARD PLATE): active; positive | mutagenic call (Test System: AMES SALMONELLA TYPHIMURIUM, Strain/Indicator: TA1538, Metabolic Activation: NONE, Method: STANDARD PLATE): inactive; negative

O=[N+]([O-])c1cc2c(ccc3cc(N(CCCl)CCCl)ccc32)o1
mutagenic call (Test System: AMEA SALMONELLA TYPHIMURIUM, Strain/Indicator: TA100(NR), Metabolic Activation: NONE, Method: STANDARD PLATE): active; positive | mutagenic call (Test System: AMES SALMONELLA TYPHIMURIUM, Strain/Indicator: TA100(NR), Metabolic Activation: RAT, LIVER, S-9, AROCLOR 1254, Method: STANDARD PLATE): active; positive | mutagenic call [2]: active; positive | mutagenic call [3]: active; positive

O=C1c2ccccc2C(=O)c2cc(CO)ccc21
mutagenic call [4]: inactive; negative | mutagenic call (Test System: AMES SALMONELLA TYPHIMURIUM, Strain/Indicator: TA98, Metabolic Activation: RAT, LIVER, S-9, PCB, Method: PREINCUBATION): inactive; negative | mutagenic call [5]: inactive; negative | mutagenic call (Test System: AMES SALMONELLA TYPHIMURIUM, Strain/Indicator: TA100, Metabolic Activation: RAT, LIVER, S-9, PCB, Method: PREINCUBATION): inactive; negative | mutagenic call (Test System: UDS RODENT HEPATOCYTES, Strain/Indicator: THY INCORP (NON-S-PHASE), Metabolic Activation: NONE, Method: AUTORADIOGRAPHY): inactive; negative | mutagenic call (Test System: UDS RODENT HEPATOCYTES, Strain/Indicator: THY INCORP (NON-S-PHASE), Metabolic Activation: PHENOBARBITAL, Method: AUTORADIOGRAPHY): active; positive

O=[N+]([O-])c1ccc2c3c1ccc1cccc(c13)[C@@H]1O[C@H]21
mutagenic call (Test System: AMES SALMONELLA TYPHIMURIUM, Strain/Indicator: TA98(1,8-DNP6), Metabolic Activation: RAT, LIVER, S-9, PHENOBARBITAL AND 5,6-BENZOFLAVONE, Method: PREINCUBATION): active; positive | mutagenic call (Test System: AMES SALMONELLA TYPHIMURIUM, Strain/Indicator: TA98(NR), Metabolic Activation: NONE, Method: PREINCUBATION): active; positive | mutagenic call [4]: active; positive | mutagenic call (Test System: AMES SALMONELLA TYPHIMURIUM, Strain/Indicator: TA98, Metabolic Activation: RAT, LIVER, S-9, PHENOBARBITAL AND 5,6-BENZOFLAVONE, Method: PREINCUBATION): active; positive | mutagenic call [5]: active; positive | mutagenic call (Test System: AMES SALMONELLA TYPHIMURIUM, Strain/Indicator: TA100, Metabolic Activation: RAT, LIVER, S-9, PHENOBARBITAL AND 5,6-BENZOFLAVONE, Method: PREINCUBATION): active; positive | mutagenic call (Test System: CHINESE HAMSTER OVARY, Strain/Indicator: CHO (HGPRT)/6-THIOGUANINE, Metabolic Activation: NONE, Method: STANDARD PLATE): active; positive | mutagenic call (Test System: CHINESE HAMSTER OVARY, Strain/Indicator: CHO (HGPRT)/6-THIOGUANINE, Metabolic Activation: RAT, LIVER, S-9, AROCLOR 1254, Method: STANDARD PLATE): active; positive | mutagenic call (Test System: UDS RODENT HEPATOCYTES, Strain/Indicator: THY INCORP, Metabolic Activation: NONE, Method: AUTORADIOGRAPHY): active; positive

O=C(/C=C/c1ccc([N+](=O)[O-])cc1)c1ccccc1
mutagenic call (Test System: AMES SALMONELLA TYPHIMURIUM, Strain/Indicator: TA98, Metabolic Activation: HAMSTER, LIVER, S-9, AROCLOR 1254, Method: STANDARD PLATE): active; positive | mutagenic call [1]: inactive; negative | mutagenic call (Test System: AMES SALMONELLA TYPHIMURIUM, Strain/Indicator: TA98, Metabolic Activation: RAT, LIVER, S-9, AROCLOR 1254, Method: STANDARD PLATE): active; positive | mutagenic call (Test System: AMES SALMONELLA TYPHIMURIUM, Strain/Indicator: TA100(1,8-DNP6), Metabolic Activation: NONE, Method: PREINCUBATION): inactive; negative | mutagenic call (Test System: AMES SALMONELLA TYPHIMURIUM, Strain/Indicator: TA100(1,8-DNP6), Metabolic Activation: RAT, LIVER, S-9, AROCLOR 1254, Method: PREINCUBATION): inactive; negative | mutagenic call (Test System: AMES SALMONELLA TYPHIMURIUM, Strain/Indicator: TA100(NR), Metabolic Activation: NONE, Method: PREINCUBATION): inactive; negative | mutagenic call (Test System: AMES SALMONELLA TYPHIMURIUM, Strain/Indicator: TA100(NR), Metabolic Activation: RAT, LIVER, S-9, AROCLOR 1254, Method: PREINCUBATION): inactive; negative | mutagenic call (Test System: AMES SALMONELLA TYPHIMURIUM, Strain/Indicator: TA100, Metabolic Activation: HAMSTER, LIVER, S-9, AROCLOR 1254, Method: STANDARD PLATE): active; positive | mutagenic call [5]: inactive; negative | mutagenic call [2]: inactive; negative | mutagenic call [3]: active; positive | mutagenic call (Test System: AMES SALMONELLA TYPHIMURIUM, Strain/Indicator: TA100, Metabolic Activation: RAT, LIVER, S-9, AROCLOR, Method: PREINCUBATION): active; positive | mutagenic call (Test System: MOUSE LYMPHOMA, Strain/Indicator: L5178Y (TK+/TK-), Metabolic Activation: NONE, Method: SUSPENSION/PLATE): inactive; negative. reevaluation of results: negative | mutagenic call (Test System: MOUSE LYMPHOMA, Strain/Indicator: L5178Y (TK+/TK-), Metabolic Activation: RAT, LIVER, S-9, AROCLOR 1254, Method: SUSPENSION/PLATE): inactive; negative. reevaluation of results: negative

O=C1OCC(CBr)=C1Cl
mutagenic call [2]: active; positive

From PubChem BioAssay AID1259407 (Chemical Carcinogenesis Research Information System (CCRIS), 2018)
